Experimental data published in paper PMC8632718, “Novel Assay Platform to Evaluate Intracellular Killing of Mycobacterium tuberculosis: In Vitro and In Vivo Validation” (Frontiers in Immunology, 2021).
In brackets after ≈: the same amount, converted by molar mass. Where two headings read alike, the source gives them in different places. Ends that are not written are not given here.

Experiments:
Mtb H37Rv = test: In vitro antitubercular effect, broth dilution MIC; format: cell-based; conditions: Mycobacterium tuberculosis, 672 h, extracellular Mtb H37Rv, Sula semisynthetic medium pH 6.5, 37°C, 28 days, repeated at least two times
[1] = system: Mycobacterium tuberculosis H37Rv; test: Slow progressing murine TB model (i.p. infection), CFU in organs; format: in vivo, BALB/c female mice; conditions: BALB/c mice, INH 20 mg/kg bw per os, twice a week for 5 weeks, 1 week after 10th treatment
[2] = system: Mtb H37Rv-infected MonoMac-6 human monocytes; test: Intracellular killing of Mycobacterium tuberculosis; format: cell-based
EBC-1 spheroids = test: Penetration into EBC-1 3D spheroids (confocal line scan); format: cell-based, human; conditions: 10 µM, 3 h, confocal z-stack to 55 µm, line scan n = 16
Procedure: In this study, we have employed a modified method based on ([55]). Briefly, micromolds for casting 3D Petri dishes (MicroTissues, Sigma, 5 × 7 array) were filled with molten agarose (2% (w/v) in PBS). The gelled agarose dishes were equilibrated with serum-free DMEM (2 ml/2 h, 37°C). Cells were seeded after incubation (1.8 × 10^4 cell/µL in DMEM CM). Prior to seeding process, nuclei were stained with Hoechst 33342 solution (0.2 µM) for 30 min ( Figure 2 ). Based on our previous work ([55]), the nuclear stain could not successfully penetrate into deeper layers of the spheroids (mostly localized at the spheroid surface), and towards the center of the spheroids the Hoechst 33342 signal was gradually decreasing. Stained cells were incubated in 2 ml DMEM CM for 48 h while cell-to-cell adhesion drives the aggregation and formation of spheroids. To monitor the condition of the spheroids, bright-field images were captured (Olympus CX41). After 48 h of incubation, spheroids were washed two times with fresh ICM DMEM and were treated with the Cf-Dhvar4 peptide (10 µM/2 ml ICM DMEM for 3 h). […] Line scan analysis was performed by NIH ImageJ software, two spheroids were analyzed (eight scans per spheroid, n = 16 in total). […]
Next, we assessed the penetration ability of Cf-Dhvar4 peptide on spheroids formed from EBC-1 cells. […]

MonoMac-6 cells = format: cell-based, human; conditions: 10 µM Cf-peptide, 2 h, LysoTracker, ImageJ JACoP on merged images
Procedure: Cellular uptake and localization were visualized by confocal laser scanning microscopy. MonoMac-6 cells were seeded 1 day prior to treatment into coverslips (thickness 1, Assistent, Karl Hecht GmbH, Sondheim vor der Rhön, Germany) containing a 24-well plate (Sarstedt, Nümbrecht, Germany) for microscopy studies at a density of 7.5 × 10^4 cells/well, in 1 ml complete DMEM medium. The following day, cells were treated with Cf-peptide at a concentration of 10 µM (diluted in serum-free DMEM medium) for 2 h. Lysosomes were stained by LysoTracker Deep Red (Invitrogen, Waltham, MA, USA) for 30 min, and nuclei were stained by Hoechst 33342 solution (Thermo Scientific, USA). After each step, cells were washed three times with serum-free medium, then cells were fixed by 4% paraformaldehyde for 15 min and mounted to microscopy slides with Mowiol 4-88 (Sigma, Budapest, Hungary). Imaging was performed by a Zeiss LSM-710 system (Carl Zeiss microscopy GmbH, Oberkochen, Germany) with a ×40/1.4 Plan-Apochromat oil immersion objective using lasers with the parameters: Cf peptides λex = 488 nm, λem = 541 nm, nuclei λex = 405 nm, λem = 467 nm (Hoechst 33342), lysosomes λex = 633 nm, λem = 720 nm (LysoTrackerTM Deep Red) or λex = 577 nm, λem = 590 nm (LysoTrackerTM Red DND-99) were used. Zeiss ZEN lite software (Carl Zeiss Microscopy GmbH, Jena, Germany) was used for image processing.
Parallel with flow cytometry measurements, confocal laser scanning microscopy images were also captured in order to assess qualitative information on intracellular localization. LysoTrackerTM Deep Red was used for lysosome and Hoechst 33342 for nuclear staining to distinguish subcellular localization of the Cf-peptide. […] Colocalization of Cf-peptide and LysoTracker may be subjectively identified by the cooccurrence, the simple spatial overlap which combined the contribution of both signals (green and red) when the images of each signal are superimposed (merged, see Supplementary Figure S3 ).
microscopy at the 10 µM Cf-peptide concentration (based on flow cytometry profile), and MonoMac6 cells were incubated for 2 hrs.
the visible differences among localization profiles of the Cf-peptides, we applied greyscale analysis of
the images and the evaluation was carried out on a representative peptide set.
were studied and the treatment, the staining and fixation process were carefully optimized to assess
Laser intensity values were identical in case of all Cf-peptides. ZEN 3.0 blue lite software
was used for image processing and grey scale values were extracted using NIH ImageJ software’s Plot

EBC-1 cells = format: cell-based, human; conditions: 10 µM, 3 hrs, fixed, 30 profiles
Procedure: In addition to the internalization experiments, the surface morphology of INH-peptide-treated and fixed EBC-1 cells was also studied with atomic force microscopy (AFM) ( Supplementary Information 1.3 ). High-resolution imaging of the cell surfaces was performed with a Flex-Axiom AFM system (Nanosurf, Liestal, Switzerland).The representative images and surface roughness of the native and treated cells are shown in Supplementary Figure S2 .
1.3 Membrane integrity evaluation by atomic force microscopy (AFM) […]
High resolution imaging of the surfaces were performed with a Flex-Axiom AFM system (Nanosurf, Liestal, Switzerland) operating in dynamic mode utilizing soft-tapping cantilevers (Tap150-G, BudgetSensors) with nominal force constant of 5 N/m. The recorded images were evaluated with the Gwyddion software. […]
Two cut-off frequencies were chosen with real-space wavelengths of 1 μm and 200 nm. […] Figure 2D,E,F. Scale dependent surface roughness of the cells was determined according to Antonio et al. Mean Rq values are somewhat higher in the peptide and conjugate treated cells, but […]
Supplementary Figure 2. […] The apex area of the cells was selected for imaging with a scan area of 5 μm × 5 μm (512 × 512 pixel resolution), where the cellular curvature has the smallest distortion effect on the recorded height profiles. […]
1.4. […] To quantify […]

[3] = Analytical RP-HPLC retention time (correlates with overall hydrophobicity); format: physicochemical; set-up: Rt (retention time): unit not given here; conditions: chromatographic measure of hydrophobicity; Waters Acquity UPLC BEH C18 (1.7 µm, 150 × 2.1 mm), flow rate 0.3 ml/min, gradient 2% B 1 min, 2%–100% B 16 min; single peak or first of two 5(6)-Cf isomer peaks
Procedure: Purified peptides were analyzed by LC-MS using a Thermo Scientific Q Exactive Focus Hybrid Quadrupole-Orbitrap Mass Spectrometer. For the separation, a Waters Acquity UPLC BEH C18 (1.7 µm, 150 × 2.1 mm) column was used with a flow rate of 0.3 ml/min.
For INH conjugation, representative cell-penetrating (CPP) and antimicrobial peptides (AMP) were chosen. These cationic, amphiphilic peptides are favored in the transportation of various cargos due to their high internalization rate. The used peptide series contains well-known CPPs such as penetratin, transportan, and Tat, frequently studied AMPs such as magainin and buforin, and designed analogs such as Dhvar4, Crot(1-9,38-42), and CM15. Also, a receptor-binding tuftsin analog (OT20), which was reported as a macrophage-targeting peptide, was also applied. […] Mass spectra and RP-HPLC chromatograms are available at https://figshare.com/s/48a023a25068f7658adf, DOI: 10.6084/m9.figshare.16644901. […] To study the internalization rate and intracellular localization, fluorescently labeled analogs were also synthesized. Note that the retention time of Cf-peptide are somewhat higher than unlabeled analogs, and in some cases, two peaks were detected due to the isomeric distribution of 5(6)-Cf molecule.

[4] = system: CALU-1 monolayer / EBC-1 cells; format: in vitro ADME, human; conditions: Transwell, 0.4 µm polycarbonate, Cf-peptide apical 10 and 20 µM, 45 min, apical to basolateral; EBC-1 fluorescence read-out
Procedure: EBC-1 lung squamous carcinoma and CALU-1 human lung epidermoid carcinoma were seeded on 24-well plates with Transwell inserts (TW) [Nunc, Sigma polycarbonate microporous membrane, 0.4 µm pore size (growth area 0.412 cm^2)]. Before use, TW inserts were incubated with ICM. On day 1, 300 μl of CALU-1 suspension in complete DMEM medium (8.0 × 10^5 cells) was pipetted onto the surface of the TW apical chamber and 500 μl complete DMEM medium was added to the basolateral side. In order to avoid nonattached cells, after incubation at 37°C for 5–6 h, the apical medium was removed and replaced with fresh complete DMEM medium. […] On day 5, the medium was changed, then Cf-peptide was added to the CALU-1-containing apical side at 10 and 20 µM concentrations, and the system was incubated for 45 min or 3 h (37°C, 5% CO2). The TW chamber was removed after incubation. EBC-1 cells were studied using flow cytometry (BD LSR II).
EBC-1 cells were treated without the presence of the TW inserts as controls (on day 4 prior to treatment, EBC-1 cells (10^5 cells/well in complete DMEM). […]
Figure 7 The penetration ability of Cf-peptides was determined on Transwell bronchial interface, and the penetration rates were quantified by flow cytometry. […] The confluence of CALU-1 monolayer was monitored with CellTracker Green, and after development of stable green fluorescence, cells were imaged in situ. […]

Compound: NNC(=O)c1ccncc1 [INH, isoniazid]
- MIC (Mtb H37Rv): 0.1 to 0.5 µM (≈ 0.0137 to 0.0686 µg/mL)
- Mtb CFU in spleen ([1]; INH-Dhvar4 30 mg/kg bw s.c.): moderate decrease
- Mtb CFU in lung [1]: Clearance of Mtb from the lung
- intracellular killing efficacy (CFU) ([2]; 5, 10, 50 µM, treated two times for 3 + 3 days, SDS lysis, CFU on Löwenstein-Jensen after 4 weeks): not effective

Compound: Cf-RAGLQFPVGRVHRLLRK [Cf-Dhvar4, 5(6)-carboxyfluorescein-labeled Dhvar4]
- penetration ability on EBC-1 spheroids (EBC-1 spheroids): fair penetration ability
- Pearson's coefficient of colocalization with lysosomal staining (MonoMac-6 cells): 0.249

Compound: KRLFKKLLFSLRKY-NH2 [Dhvar4, reference compound]
- membrane integrity (AFM surface roughness Rq) (EBC-1 cells): membrane integrity maintained
- Rt (retention time) [3]: 6.9
- penetration through CALU-1 monolayer and internalization into EBC-1 cells [4]: higher internalization rates
- intracellular killing efficacy (CFU) [2]: not effective
